According to patent US12209087B2, “AKT1 modulators” (Alterome Therapeutics, Inc., priority 2022, dated 2025):

Biological target: T1, full length AKT E17K (Homo sapiens, UniProt P31749, E17K)
T1 construct: host or cells: HEK-293 (ATCC CRL-1573)
Experiment: NanoBRET Target Engagement (TE) Assay
Format: cell-based
Details: competitive tracer displacement in living cells, read-out: AKT1 E17K IC50
In short: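 Compound and tracer incubated 2 h before luminescence at donor 450 nm and acceptor 600 nm, with extracellular signal inhibited. EC50 by sigmoidal variable-slope regression.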

T1 sequence (P31749 whole entry E17K): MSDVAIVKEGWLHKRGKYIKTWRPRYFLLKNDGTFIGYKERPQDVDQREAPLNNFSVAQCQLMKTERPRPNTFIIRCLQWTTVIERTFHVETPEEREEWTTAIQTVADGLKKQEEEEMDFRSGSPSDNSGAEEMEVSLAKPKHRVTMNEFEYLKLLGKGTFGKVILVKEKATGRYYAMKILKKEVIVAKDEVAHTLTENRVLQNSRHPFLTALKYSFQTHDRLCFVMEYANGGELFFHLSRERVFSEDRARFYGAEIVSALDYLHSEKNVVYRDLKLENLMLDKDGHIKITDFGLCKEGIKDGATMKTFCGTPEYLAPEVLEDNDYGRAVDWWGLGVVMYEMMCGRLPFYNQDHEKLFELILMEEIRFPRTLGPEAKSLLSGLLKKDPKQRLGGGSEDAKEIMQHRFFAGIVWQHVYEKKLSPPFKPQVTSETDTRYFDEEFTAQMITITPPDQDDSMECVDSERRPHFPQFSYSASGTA

SMILES | IC50 [nM]
N#Cc1nc2c(C(=O)NC3CCN(Cc4ccc(-n5c(-c6cccnc6N)nc6ccc(-c7ccccc7)nc65)cc4)CC3)cc(F)cc2s1 [Example 183, N-(1-(4-(2-(2-aminopyridin-3-yl)-5-phenyl-3H-imidazo[4,5-b]pyridin-3-yl)benzyl)piperidin-4-yl)-2-cyano-6-fluorobenzo[d]thiazole-4-carboxamide] | 60 to 600
N#Cc1nc2cc(C(=O)N3CCN(Cc4ccc(-n5c(-c6cccnc6N)nc6ccc(-c7ccccc7)nc65)cc4)CC3)ccc2s1 [Example 184, 5-(4-(4-(2-(2-aminopyridin-3-yl)-5-phenyl-3H-imidazo[4,5-b]pyridin-3-yl)benzyl)piperazine-1-carbonyl)benzo[d]thiazole-2-carbonitrile] | < 15
N#Cc1nc2cc(C(=O)NC3CCN(Cc4ccc(-n5c(-c6cccnc6N)nc6ccc(-c7ccccc7)nc65)cc4)CC3)ccc2s1 [Example 185, N-(1-(4-(2-(2-aminopyridin-3-yl)-5-phenyl-3H-imidazo[4,5-b]pyridin-3-yl)benzyl)piperidin-4-yl)-2-cyanobenzo[d]thiazole-5-carboxamide] | < 15
C[C@H]1CN(Cc2ccc(-n3c(-c4cccnc4N)nc4ccc(-c5ccccc5)nc43)cc2)C[C@H](C)N1c1ccnc(C#N)n1 [Example 192, 4-((2S,6S)-4-(4-(2-(2-Aminopyridin-3-yl)-5-phenyl-3H-imidazo[4,5-b]pyridin-3-yl)benzyl)-2,6-dimethylpiperazin-1-yl)pyrimidine-2-carbonitrile] | 15 to 60
C[C@H]1CN(Cc2ccc(-n3c(-c4cccnc4N)nc4ccc(-c5ccccc5)nc43)cc2)C[C@H](C)N1c1nccc(C#N)n1 [Example 193, 2-((2S,6S)-4-(4-(2-(2-Aminopyridin-3-yl)-5-phenyl-3H-imidazo[4,5-b]pyridin-3-yl)benzyl)-2,6-dimethylpiperazin-1-yl)pyrimidine-4-carbonitrile] | 60 to 600
C[C@H]1CN(Cc2ccc(-n3c(-c4cccnc4N)nc4ccc(-c5ccccc5)nc43)cc2)C[C@H](C)N1c1cc(C#N)ncn1 [Example 194, 6-((2S,6S)-4-(4-(2-(2-Aminopyridin-3-yl)-5-phenyl-3H-imidazo[4,5-b]pyridin-3-yl)benzyl)-2,6-dimethylpiperazin-1-yl)pyrimidine-4-carbonitrile] | 60 to 600
C[C@@H]1CN(Cc2ccc(-n3c(-c4cccnc4N)nc4ccc(-c5ccccc5)nc43)cc2)C[C@@H](C)N1c1ccnc(C#N)n1 [Example 195, 4-((2R,6R)-4-(4-(2-(2-aminopyridin-3-yl)-5-phenyl-3H-imidazo[4,5-b]pyridin-3-yl)benzyl)-2,6-dimethylpiperazin-1-yl)pyrimidine-2-carbonitrile] | < 15
C[C@@H]1CN(Cc2ccc(-n3c(-c4cccnc4N)nc4ccc(-c5ccccc5)nc43)cc2)C[C@@H](C)N1c1nccc(C#N)n1 [Example 196, 2-((2R,6R)-4-(4-(2-(2-aminopyridin-3-yl)-5-phenyl-3H-imidazo[4,5-b]pyridin-3-yl)benzyl)-2,6-dimethylpiperazin-1-yl)pyrimidine-4-carbonitrile] | 60 to 600
C[C@@H]1CN(Cc2ccc(-n3c(-c4cccnc4N)nc4ccc(-c5ccccc5)nc43)cc2)C[C@@H](C)N1c1cc(C#N)ncn1 [Example 197, 6-((2R,6R)-4-(4-(2-(2-aminopyridin-3-yl)-5-phenyl-3H-imidazo[4,5-b]pyridin-3-yl)benzyl)-2,6-dimethylpiperazin-1-yl)pyrimidine-4-carbonitrile] | 60 to 600
N#Cc1nccc(N2CCN(Cc3ccc(-n4c(-c5cccnc5N)nc5ccc(-c6ccccc6)nc54)cc3)CC23CC3)n1 [Example 198, 4-(7-(4-(2-(2-Aminopyridin-3-yl)-5-phenyl-3H-imidazo[4,5-b]pyridin-3-yl)benzyl)-4,7-diazaspiro[2.5]octan-4-yl)pyrimidine-2-carbonitrile] | 15 to 60
N#Cc1ccnc(N2CCN(Cc3ccc(-n4c(-c5cccnc5N)nc5ccc(-c6ccccc6)nc54)cc3)CC23CC3)n1 [Example 199, 2-(7-(4-(2-(2-Aminopyridin-3-yl)-5-phenyl-3H-imidazo[4,5-b]pyridin-3-yl)benzyl)-4,7-diazaspiro[2.5]octan-4-yl)pyrimidine-4-carbonitrile] | 60 to 600
N#Cc1cc(N2CCN(Cc3ccc(-n4c(-c5cccnc5N)nc5ccc(-c6ccccc6)nc54)cc3)CC23CC3)ncn1 [Example 200, 6-(7-(4-(2-(2-Aminopyridin-3-yl)-5-phenyl-3H-imidazo[4,5-b]pyridin-3-yl)benzyl)-4,7-diazaspiro[2.5]octan-4-yl)pyrimidine-4-carbonitrile] | 15 to 60
N#Cc1nccc(NC2C3CCC2CN(Cc2ccc(-n4c(-c5cccnc5N)nc5ccc(-c6ccccc6)nc54)cc2)C3)n1 (stereo not drawn) [Example 201, 4-((3-(4-(2-(2-Aminopyridin-3-yl)-5-phenyl-3H-imidazo[4,5-b]pyridin-3-yl)benzyl)-3-azabicyclo[3.2.1]octan-8-yl)amino)pyrimidine-2-carbonitrile] | 60 to 600
N#Cc1cc(NC2C3CCC2CN(Cc2ccc(-n4c(-c5cccnc5N)nc5ccc(-c6ccccc6)nc54)cc2)C3)ncn1 (stereo not drawn) [Example 202, 6-((3-(4-(2-(2-Aminopyridin-3-yl)-5-phenyl-3H-imidazo[4,5-b]pyridin-3-yl)benzyl)-3-azabicyclo[3.2.1]octan-8-yl)amino)pyrimidine-4-carbonitrile] | 600 to 10000
N#Cc1nccc(N2C3CCC2CN(Cc2ccc(-n4c(-c5cccnc5N)nc5ccc(-c6ccccc6)nc54)cc2)C3)n1 [Example 203, 4-(3-(4-(2-(2-Aminopyridin-3-yl)-5-phenyl-3H-imidazo[4,5-b]pyridin-3-yl)benzyl)-3,8-diazabicyclo[3.2.1]octan-8-yl)pyrimidine-2-carbonitrile] | 60 to 600
N#Cc1ccnc(N2C3CCC2CN(Cc2ccc(-n4c(-c5cccnc5N)nc5ccc(-c6ccccc6)nc54)cc2)C3)n1 [Example 204, 2-(3-(4-(2-(2-Aminopyridin-3-yl)-5-phenyl-3H-imidazo[4,5-b]pyridin-3-yl)benzyl)-3,8-diazabicyclo[3.2.1]octan-8-yl)pyrimidine-4-carbonitrile] | 600 to 10000
N#Cc1cc(N2C3CCC2CN(Cc2ccc(-n4c(-c5cccnc5N)nc5ccc(-c6ccccc6)nc54)cc2)C3)ncn1 [Example 205, 6-(3-(4-(2-(2-Aminopyridin-3-yl)-5-phenyl-3H-imidazo[4,5-b]pyridin-3-yl)benzyl)-3,8-diazabicyclo[3.2.1]octan-8-yl)pyrimidine-4-carbonitrile] | 60 to 600
C[C@H]1CN(Cc2ccc(-n3c(-c4cccnc4N)nc4ccc(-c5ccccc5)nc43)cc2)CCN1c1ccnc(C#N)n1 [Example 206, (S)-4-(4-(4-(2-(2-Aminopyridin-3-yl)-5-phenyl-3H-imidazo[4,5-b]pyridin-3-yl)benzyl)-2-methylpiperazin-1-yl)pyrimidine-2-carbonitrile] | 15 to 60
C[C@H]1CN(Cc2ccc(-n3c(-c4cccnc4N)nc4ccc(-c5ccccc5)nc43)cc2)CCN1c1nccc(C#N)n1 [Example 207, (S)-2-(4-(4-(2-(2-Aminopyridin-3-yl)-5-phenyl-3H-imidazo[4,5-b]pyridin-3-yl)benzyl)-2-methylpiperazin-1-yl)pyrimidine-4-carbonitrile] | 60 to 600
C[C@H]1CN(Cc2ccc(-n3c(-c4cccnc4N)nc4ccc(-c5ccccc5)nc43)cc2)CCN1c1cc(C#N)ncn1 [Example 208, (S)-6-(4-(4-(2-(2-Aminopyridin-3-yl)-5-phenyl-3H-imidazo[4,5-b]pyridin-3-yl)benzyl)-2-methylpiperazin-1-yl)pyrimidine-4-carbonitrile] | 60 to 600
N#Cc1nccc(N2CC3CCC(C2)N3Cc2ccc(-n3c(-c4cccnc4N)nc4ccc(-c5ccccc5)nc43)cc2)n1 [Example 211, 4-(8-(4-(2-(2-Aminopyridin-3-yl)-5-phenyl-3H-imidazo[4,5-b]pyridin-3-yl)benzyl)-3,8-diazabicyclo[3.2.1]octan-3-yl)pyrimidine-2-carbonitrile] | < 15
N#Cc1ccnc(N2CC3CCC(C2)N3Cc2ccc(-n3c(-c4cccnc4N)nc4ccc(-c5ccccc5)nc43)cc2)n1 [Example 212, 2-(8-(4-(2-(2-Aminopyridin-3-yl)-5-phenyl-3H-imidazo[4,5-b]pyridin-3-yl)benzyl)-3,8-diazabicyclo[3.2.1]octan-3-yl)pyrimidine-4-carbonitrile] | 60 to 600
N#Cc1cc(N2CC3CCC(C2)N3Cc2ccc(-n3c(-c4cccnc4N)nc4ccc(-c5ccccc5)nc43)cc2)ncn1 [Example 213, 6-(8-(4-(2-(2-Aminopyridin-3-yl)-5-phenyl-3H-imidazo[4,5-b]pyridin-3-yl)benzyl)-3,8-diazabicyclo[3.2.1]octan-3-yl)pyrimidine-4-carbonitrile] | 15 to 60
N#Cc1nccc(N2CCCN(Cc3ccc(-n4c(-c5cccnc5N)nc5ccc(-c6ccccc6)nc54)cc3)CC2)n1 [Example 214, 4-(4-(4-(2-(2-Aminopyridin-3-yl)-5-phenyl-3H-imidazo[4,5-b]pyridin-3-yl)benzyl)-1,4-diazepan-1-yl)pyrimidine-2-carbonitrile] | 15 to 60
N#Cc1cc(N2CCCN(Cc3ccc(-n4c(-c5cccnc5N)nc5ccc(-c6ccccc6)nc54)cc3)CC2)ncn1 [Example 215, 6-(4-(4-(2-(2-aminopyridin-3-yl)-5-phenyl-3H-imidazo[4,5-b]pyridin-3-yl)benzyl)-1,4-diazepan-1-yl)pyrimidine-4-carbonitrile] | < 15
N#Cc1nccc(N2C[C@H]3C[C@@H]2CN3Cc2ccc(-n3c(-c4cccnc4N)nc4ccc(-c5ccccc5)nc43)cc2)n1 [Example 216, 4-((1R,4R)-5-(4-(2-(2-Aminopyridin-3-yl)-5-phenyl-3H-imidazo[4,5-b]pyridin-3-yl)benzyl)-2,5-diazabicyclo[2.2.1]heptan-2-yl)pyrimidine-2-carbonitrile] | < 15
N#Cc1ccnc(N2C[C@H]3C[C@@H]2CN3Cc2ccc(-n3c(-c4cccnc4N)nc4ccc(-c5ccccc5)nc43)cc2)n1 [Example 217, 2-((1R,4R)-5-(4-(2-(2-Aminopyridin-3-yl)-5-phenyl-3H-imidazo[4,5-b]pyridin-3-yl)benzyl)-2,5-diazabicyclo[2.2.1]heptan-2-yl)pyrimidine-4-carbonitrile] | 15 to 60
